Columns and labels:
Experiment in all cases: relative viability (nuclei count vs DMSO), 5 days (fraction); higher = more cells survive
[1] = compound: OCc1c[nH]c2ccccc12 [Indole-3-carbinol]
Outline: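 Lung cancer cell lines in 1536-well plates were exposed by pinning to five library-drug doses (not always all listed) √10 apart, following an overnight hold at 37 °C. MetaXpress counted Hoechst-stained nuclei from 4× images taken after 5 days without medium change. Viability is the median ratio of treated-well to vehicle-well nuclei across plates. Plates required control CV below 25% and at least one doubling.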

[2] = compound: OCc1c[nH]c2ccccc12 [Indole-3-carbinol] + Nc1nc2[nH]cc(CCc3ccc(C(=O)N[C@@H](CCC(=O)O)C(=O)O)cc3)c2c(=O)[nH]1 [Pemetrexed] (partner 0.2 µM)
Outline: (§1)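 Lung cancer cell lines were pin-tool dosed in 1536-well plates on the day after seeding, with either a lone drug or a fixed anchor-drug dose plus five library-drug doses (not always all listed) in √10 steps. Nuclei were counted on 4× images after 5 days. Relative viability is the ratio of treated-well to vehicle-well nuclei counts, with each value a median of duplicate plates.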

[3] = compound: OCc1c[nH]c2ccccc12 [Indole-3-carbinol] + Cc1nc(Nc2ncc(C(=O)Nc3c(C)cccc3Cl)s2)cc(N2CCN(CCO)CC2)n1 [Dasatinib] (partner 0.075 µM)
Outline: as §1

[4] = compound: OCc1c[nH]c2ccccc12 [Indole-3-carbinol] + COc1cc2c(Oc3ccc(NC(=O)C4(C(=O)Nc5ccc(F)cc5)CC4)cc3F)ccnc2cc1OCCCN1CCOCC1 [Foretinib] (partner 0.25 µM)
Outline: as §1

[5] = compound: OCc1c[nH]c2ccccc12 [Indole-3-carbinol] + CS(=O)(=O)N1CCN(Cc2cc3nc(-c4cccc5[nH]ncc45)nc(N4CCOCC4)c3s2)CC1 [Pictilisib] (partner 1 µM)
Outline: as §1

[6] = compound: OCc1c[nH]c2ccccc12 [Indole-3-carbinol] + C[C@@H](Oc1cc(-c2cnn(C3CCNCC3)c2)cnc1N)c1c(Cl)ccc(F)c1Cl [Crizotinib] (partner 1 µM)
Outline: as §1

[7] = compound: OCc1c[nH]c2ccccc12 [Indole-3-carbinol] + Cc1nc(NC(=O)N2CCC[C@H]2C(N)=O)sc1-c1ccnc(C(C)(C)C(F)(F)F)c1 [Alpelisib] (partner 2 µM)
Outline: as §1

[8] = compound: OCc1c[nH]c2ccccc12 [Indole-3-carbinol] + CC(C)C[C@H](NC(=O)[C@H](Cc1ccccc1)NC(=O)c1cnccn1)B(O)O [Bortezomib] (partner 0.002 µM)
Outline: as §1

[9] = compound: OCc1c[nH]c2ccccc12 [Indole-3-carbinol] + COc1cccc2cc(-c3nc([C@H]4CC[C@H](C(=O)O)CC4)n4ncnc(N)c34)[nH]c12 [OSI-027] (partner 0.5 µM)
Outline: as §1

[10] = compound: OCc1c[nH]c2ccccc12 [Indole-3-carbinol] + C[C@]1(O)C[C@@H](c2nc(-c3ccc4ccc(-c5ccccc5)nc4c3)c3c(N)nccn32)C1 [Linsitinib] (partner 1 µM)
Outline: as §1

[11] = compound: OCc1c[nH]c2ccccc12 [Indole-3-carbinol] + N=C(N)NC(=N)NCCc1ccccc1 [Phenformin] (partner 250 µM)
Outline: as §1

[12] = compound: OCc1c[nH]c2ccccc12 [Indole-3-carbinol] + CS(=O)(=O)CCNCc1ccc(-c2ccc3ncnc(Nc4ccc(OCc5cccc(F)c5)c(Cl)c4)c3c2)o1 [Lapatinib] (partner 2 µM)
Outline: as §1

[13] = compound: OCc1c[nH]c2ccccc12 [Indole-3-carbinol] + CCNC(=O)c1noc(-c2cc(C(C)C)c(O)cc2O)c1-c1ccc(CN2CCOCC2)cc1 [Luminespib] (partner 0.01 µM)
Outline: as §1

[14] = compound: OCc1c[nH]c2ccccc12 [Indole-3-carbinol] + Cc1cc(Nc2cc(N3CCN(C)CC3)nc(Sc3ccc(NC(=O)C4CC4)cc3)n2)n[nH]1 [Tozasertib] (partner 0.1 µM)
Outline: as §1

NCI-H1563
relative viability ([1]; 0.253 µM): 1.02 | relative viability ([1]; 0.8 µM): 0.883 | relative viability ([1]; 2.53 µM): 1.09 | relative viability ([1]; 8 µM): 0.908 | relative viability ([2]; first compound 0.253 µM): 0.767 | relative viability ([2]; first compound 0.8 µM): 0.645 | relative viability ([2]; first compound 2.53 µM): 0.809 | relative viability ([2]; first compound 8 µM): 0.802 | relative viability ([3]; first compound 0.253 µM): 0.471 | relative viability ([3]; first compound 0.8 µM): 0.428 | relative viability ([3]; first compound 2.53 µM): 0.429 | relative viability ([3]; first compound 8 µM): 0.479 | relative viability ([4]; first compound 0.253 µM): 0.865 | relative viability ([4]; first compound 0.8 µM): 0.799 | relative viability ([4]; first compound 2.53 µM): 0.914 | relative viability ([4]; first compound 8 µM): 0.859 | relative viability ([5]; first compound 0.253 µM): 0.667 | relative viability ([5]; first compound 0.8 µM): 0.611 | relative viability ([5]; first compound 2.53 µM): 0.664 | relative viability ([5]; first compound 8 µM): 0.662 | relative viability ([6]; first compound 0.253 µM): 0.769 | relative viability ([6]; first compound 0.8 µM): 0.883 | relative viability ([6]; first compound 2.53 µM): 0.866 | relative viability ([6]; first compound 8 µM): 0.879 | relative viability ([7]; first compound 0.253 µM): 0.905 | relative viability ([7]; first compound 0.8 µM): 0.997 | relative viability ([7]; first compound 2.53 µM): 0.921 | relative viability ([7]; first compound 8 µM): 0.885 | relative viability ([8]; first compound 0.253 µM): 0.951 | relative viability ([8]; first compound 0.8 µM): 0.7 | relative viability ([8]; first compound 2.53 µM): 0.996 | relative viability ([8]; first compound 8 µM): 0.774 | relative viability ([9]; first compound 0.253 µM): 0.733 | relative viability ([9]; first compound 0.8 µM): 0.748 | relative viability ([9]; first compound 2.53 µM): 0.747 | relative viability ([9]; first compound 8 µM): 0.791 | relative viability ([10]; first compound 0.253 µM): 1.24 | relative viability ([10]; first compound 0.8 µM): 1.27 | relative viability ([10]; first compound 2.53 µM): 1.23 | relative viability ([10]; first compound 8 µM): 1.08 | relative viability ([11]; first compound 0.253 µM): 0.657 | relative viability ([11]; first compound 0.8 µM): 0.652 | relative viability ([11]; first compound 2.53 µM): 0.636 | relative viability ([11]; first compound 8 µM): 0.644 | relative viability ([12]; first compound 0.253 µM): 1.03 | relative viability ([12]; first compound 0.8 µM): 0.818 | relative viability ([12]; first compound 2.53 µM): 0.975 | relative viability ([12]; first compound 8 µM): 0.967 | relative viability ([13]; first compound 0.253 µM): 0.454 | relative viability ([13]; first compound 0.8 µM): 0.494 | relative viability ([13]; first compound 2.53 µM): 0.512 | relative viability ([13]; first compound 8 µM): 0.495

NCI-H1623
relative viability ([1]; 0.253 µM): 0.924 | relative viability ([1]; 0.8 µM): 1.02 | relative viability ([1]; 2.53 µM): 0.984 | relative viability ([1]; 8 µM): 0.978 | relative viability ([3]; first compound 0.253 µM): 0.531 | relative viability ([3]; first compound 0.8 µM): 0.566 | relative viability ([3]; first compound 2.53 µM): 0.539 | relative viability ([3]; first compound 8 µM): 0.577 | relative viability ([14]; first compound 0.253 µM): 0.467 | relative viability ([14]; first compound 0.8 µM): 0.486 | relative viability ([14]; first compound 2.53 µM): 0.39 | relative viability ([14]; first compound 8 µM): 0.453 | relative viability ([4]; first compound 0.253 µM): 0.881 | relative viability ([4]; first compound 0.8 µM): 0.989 | relative viability ([4]; first compound 2.53 µM): 0.803 | relative viability ([4]; first compound 8 µM): 0.858 | relative viability ([9]; first compound 0.253 µM): 0.412 | relative viability ([9]; first compound 0.8 µM): 0.443 | relative viability ([9]; first compound 2.53 µM): 0.424 | relative viability ([9]; first compound 8 µM): 0.436 | relative viability ([11]; first compound 0.253 µM): 0.725 | relative viability ([11]; first compound 0.8 µM): 0.611 | relative viability ([11]; first compound 2.53 µM): 0.571 | relative viability ([11]; first compound 8 µM): 0.551 | relative viability ([13]; first compound 0.253 µM): 0.425 | relative viability ([13]; first compound 0.8 µM): 0.543 | relative viability ([13]; first compound 2.53 µM): 0.532 | relative viability ([13]; first compound 8 µM): 0.529

Reference: the supplement of paper PMC10307832
